Laboratory results from US6559185B2, “Nitromethyl ketone compounds having aldose reduction inhibiting properties and methods for their use” (Merck Patent GmbH, priority 1997, dated 2003).

Experiments:
aldose reductase = biological target: T1, aldose reductase (Rattus norvegicus, UniProt P07943); test: Study in vitro: inhibition of aldose reductase; format: biochemical; details: enzyme from male Wistar rat crystalline lenses; L-glyceraldehyde, NADPH disappearance at 340 nm
T1 construct: The aldose reductase used is obtained from male Wistar rat crystalline lenses; from tissue; host or cells: male Wistar rat crystalline lenses
Procedure: 1) Study in Vitro: Inhibition of Aldose Reductase
The aldose reductase used is obtained from male Wistar rat crystalline lenses according to a modification of the method of S. HAYMAN et al. (Journal of Biological Chemistry 240, p., 877, 1965). The enzymatic extract is diluted in a phosphate buffer in the presence of NADPH and various concentrations of the test products. The reaction is initiated, with L-glyceraldehyde and the reaction rate is measured by monitoring the disappearance of NADPH by spectrophotometry at 340 nm. The reaction rate is calculated for each product concentration and then the concentration necessary for a 50% reduction in the reaction rate (IC50) is evaluated by linear interpolation.

[1] = system: sorbitol level in the sciatic nerves; test: Study in vivo: reduction of sorbitol accumulation in sciatic nerves of streptozotocin-diabetic rats; details: 10 mg/kg/d oral, 4, 30 and 52 h after streptozotocin (60 mg/kg i.v.); sciatic nerve sorbitol 18 h after last dose; diabetic male Wistar rats
Procedure: 2) Study in Vivo: Reduction of Sorbitol Accumulation
200 to 250 g male Wistar rats are made diabetic by intravenous injection of streptozotocin (60 mg/kg). They then receive an oral treatment of the test products, in the form of a suspension, 4 hours, 30 hours and 52 hours after the injection of streptozotocin. Eighteen hours after the last oral treatment, the rats are stunned and decapitated and then their sciatic nerves are removed. After extraction, the sorbitol level in the nerves is measured according to the enzymatic method described by H. U. BERGMEYER (Methods of enzymatic analysis. H. U. BERGMEYER ed., Academic Press New York 3, p. 1323, 1974).
The percentage protection is calculated for each product relative to the batch of diabetic animals taking into account the sorbitol level in the sciatic nerves of nondiabetic rats.

melting point [°C] | IC50 (aldose reductase) [nM] | SMILES | Protection against increase in sorbitol after administration 10 mg/kg/d (%) [1] [%]
60 to 63 | – | CCCCCC(=O)Nc1ccc(C(=O)C[N+](=O)[O-])c(Cl)c1 [Example 20, N-[3-chloro-4-nitromethylcarbonylphenyl]hexaneamide] | –
121 to 124 | 7 | O=C(Cc1ccccc1)Nc1ccc(C(=O)C[N+](=O)[O-])c(Cl)c1 [Example 24, N-[3-Chloro-4-nitromethylcarbonylphenyl]phenylacetamide] | 45
– | 7 | O=C(Cc1ccccc1Cl)Nc1ccc(C(=O)C[N+](=O)[O-])c(Cl)c1 [Example 28, 2-Chloro-N-[3-chloro-4-nitromethylcarbonylphenyl]phenylacetamide] | 58
160 to 162 | 7 | O=C(Cc1ccccc1C(F)(F)F)Nc1ccc(C(=O)C[N+](=O)[O-])c(Cl)c1 [Example 30, N-[3-Chloro-4-nitromethylcarbonylphenyl]-2-trifluoromethylphenylacetamide] | 61
– | 7 | Cc1ccccc1CC(=O)Nc1ccc(C(=O)C[N+](=O)[O-])c(Cl)c1 [Example 43, N-[3-Chloro-4-nitromethylcarbonylphenyl]-2-methylphenylacetamide] | 70
– | 6 | Cc1ccccc1CC(=O)Nc1ccc(C(=O)C[N+](=O)[O-])c(C)c1 [Example 59, N-[3-Methyl-4-nitromethylcarbonylphenyl]-2-methylphenylacetamide] | 52
125 to 127 | – | Cc1ccccc1CC(=O)Nc1ccc(C(=O)C[N+](=O)[O-])cc1Br [Example 60, N-[2-Bromo-4-nitromethylcarbonylphenyl]-2-methylphenylacetamide] | –
77 to 78 | – | O=C(C[N+](=O)[O-])c1ccc(Sc2ccccc2)cc1Cl [Example 64, Nitromethyl 2-Chloro-4-phenylthiophenyl Ketone] | –

The next lines start with the compound.

SMILES | melting point [°C] | IC50 (aldose reductase) [nM] | Protection against increase in sorbitol after administration 10 mg/kg/d (%) [1] [%]
N#Cc1ccccc1C(=O)C[N+](=O)[O-] | 147 to 149 | – | –
CCc1ccccc1C(=O)C[N+](=O)[O-] | 62 to 63 | – | –
O=C(C[N+](=O)[O-])c1ccccc1C(F)(F)F | 55 to 57 | – | –
CCOc1ccccc1C(=O)C[N+](=O)[O-] | 145 to 148 | – | –
CC(C)Oc1ccccc1C(=O)C[N+](=O)[O-] | 78 to 80 | – | –
O=C(C[N+](=O)[O-])c1ccccc1OC(F)(F)F [Example 1, Nitromethyl 2-Trifluoromethoxyphenyl Ketone] | – | 41 | 70
CC(C(=O)Nc1ccc(C(=O)C[N+](=O)[O-])c(Cl)c1)c1ccccc1 (stereo not drawn) [Example 23, N-[3-Chloro-4-nitromethylcarbonylphenyl]-2-phenylpropaneamide] | 136 to 137 | 7 | 40
CC(=O)Nc1cccc(C(=O)C[N+](=O)[O-])c1Cl [Example 34, N-[2-Chloro-3-nitromethylcarbonylphenyl]acetamide] | 140 to 142 | – | –
O=C(C[N+](=O)[O-])c1cc(NS(=O)(=O)c2ccccc2)ccc1Cl [Example 38, N-[4-Chloro-3-nitromethylcarbonylphenyl]benzenesulfonamide] | 152 to 154 | – | –
